The target of this assay is T1, Sex hormone-binding globulin (Homo sapiens) (UniProt P04278).
T1 sequence (whole entry): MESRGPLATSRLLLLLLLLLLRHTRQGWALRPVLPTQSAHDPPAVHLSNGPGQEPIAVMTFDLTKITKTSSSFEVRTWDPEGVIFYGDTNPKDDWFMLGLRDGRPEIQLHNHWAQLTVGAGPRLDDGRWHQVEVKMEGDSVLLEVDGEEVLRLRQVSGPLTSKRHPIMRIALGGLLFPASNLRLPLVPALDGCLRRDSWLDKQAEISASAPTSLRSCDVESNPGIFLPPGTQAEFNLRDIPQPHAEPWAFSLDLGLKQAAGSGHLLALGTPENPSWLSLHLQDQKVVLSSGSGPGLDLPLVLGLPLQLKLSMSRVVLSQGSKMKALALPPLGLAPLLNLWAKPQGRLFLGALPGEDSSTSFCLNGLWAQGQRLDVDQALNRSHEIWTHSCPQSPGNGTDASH
Description: Binding affinity against transport protein testosterone binding globulin.
In turn, `CC(=O)[C@H]1CC[C@H]2[C@@H]3CCC4=CC(=O)CC[C@]4(C)[C@H]3CC[C@]12C` gave a Log 1/K of 6.94.
The same measure for `C[C@]12CC[C@@H]3c4ccc(O)cc4CC[C@H]3[C@@H]1C[C@@H](O)[C@@H]2O`: 6.63; for `C[C@]12CCC(=O)C=C1CC[C@@H]1[C@@H]2CC[C@]2(C)C(=O)CC[C@@H]12`: 7.46.
The result for `C[C@]12CCC(=O)C=C1CC[C@@H]1[C@@H]2C(=O)C[C@@]2(C)[C@H]1CC[C@]2(O)C(=O)CO` reads 6.43; that for `C[C@]12CC[C@H]3[C@@H](CCC4=CC(=O)CC[C@@]43C)[C@@H]1CC[C@@H]2C(=O)CO`, 7.38; that for `C[C@]12CC[C@H](O)CC1=CCC1C2CC[C@]2(C)C(=O)CCC12` (stereo partly drawn), 7.82.
The same measure for `C[C@]12CCC(=O)C=C1CC[C@@H]1[C@@H]2CC[C@@]2(C)[C@H]1CC[C@]2(O)C(=O)CO`: 7.2; for `CC(=O)[C@H]1CC[C@H]2[C@@H]3CC=C4C[C@@H](O)CC[C@]4(C)[C@H]3CC[C@]12C`: 7.15.
As for `CC(=O)[C@@]1(O)CC[C@H]2[C@@H]3CCC4=CC(=O)CC[C@]4(C)[C@H]3CC[C@@]21C`, the Log 1/K turned out to be 7.
The same measure for `C[C@]12CCC(=O)C=C1CCC1C3CC[C@H](C(=O)CO)[C@@]34C[C@H](OC4O)C12` (stereo partly drawn): 5.32; for `C[C@]12CC[C@H](O)C[C@@H]1CC[C@@H]1[C@@H]2CC[C@]2(C)[C@@H](O)CC[C@@H]12`: 9.11.
The result for `C[C@]12C[C@H](O)[C@H]3[C@@H](CCC4=CC(=O)CC[C@@]43C)[C@@H]1CC[C@@H]2C(=O)CO` reads 6.34.
The result for `C[C@]12CC[C@H]3[C@@H](CCC4=CC(=O)CC[C@@]43C)[C@@H]1CC[C@@H]2O` reads 9.2; that for `C[C@]12CCC(=O)C=C1CC[C@@H]1[C@@H]2[C@@H](O)C[C@@]2(C)[C@H]1CC[C@]2(O)C(=O)CO`, 6.2.
Turning to `C[C@]12CC[C@@H](O)C[C@H]1CC[C@@H]1[C@@H]2CC[C@]2(C)C(=O)CC[C@@H]12`, the Log 1/K worked out at 6.15.
The result for `CC(=O)[C@@]1(O)CC[C@H]2[C@@H]3CC=C4C[C@@H](O)CC[C@]4(C)[C@H]3CC[C@@]21C` reads 6.36.
The result for `C[C@]12CC[C@@H](O)C[C@@H]1CC[C@@H]1[C@@H]2CC[C@]2(C)C(=O)CC[C@@H]12` reads 7.15; that for `C[C@]12CCC(=O)C[C@@H]1CC[C@@H]1[C@@H]2CC[C@]2(C)[C@@H](O)CC[C@@H]12`, 9.74.

For the origin of these results see ChEMBL document CHEMBL1127742, “Compass: predicting biological activities from molecular surface properties. Performance comparisons on a steroid benchmark” (J Med Chem, 1994).
